Experimental data from patent US20240109918A1, “HETEROCYCLIC COMPOUNDS AND USES THEREOF” (Kumquat Biosciences Inc., priority 2022, published 2024).
pIC50: −log10 of the molar value.

Key:
KRASG12D = target: T1, KRASG12D (Homo sapiens, UniProt P01116, G12D); test: Bio-Biochem-PPI-HTRF Ras-SOS1 interaction assay (KRAS G12D); type: biochemical; conditions: 5 nM
T1 construct: made in house; host or cells: E. coli BL21 (DE3)
Experimental: (§1) The assay buffer can contain −5 mM HEPES pH 7.4, ˜150 mM NaCl, ˜ 1 mM DTT, 0.05% BSA and 0.0025% (v/v) Igepal. A Ras working solution is prepared in an assay buffer containing typically a suitable amount of the protein construct (e.g., GST-tagged K-Ras mutant) and the FRET donor (e.g., antiGST-Eu(K) from Cisbio, France). A SOS1 working solution is prepared in an assay buffer containing suitable amount of the protein construct (e.g., His-hSOS1) and the FRET acceptor (e.g., anti-6His-XL665 from Cisbio, France). A suitable amount of the protein construct will depend on the range of activity or range of IC50 values being detected or under investigation. For detecting IC50 within a range of 500 nM, the protein constructs of the same range of molarity can be utilized. […] A fixed volume of DMSO with or without test compound is transferred into a 384-well plate. Ras working solution is added to all wells of the test plate. SOS1 working solution is added to all wells except for those that are subsequently filled the inhibitor control solution. Upon incubation for about 10 minutes or longer, the fluorescence is measured with a M1000Pro plate reader (Tecan) using HTRF detection (excitation 337 nm, emission 1:620 nm, emission 2: 665 nm). Compounds are tested in duplicates at different concentrations (for example, 10 μM, 2.5 μM, 0.63 μM, 0.16 μM, 0.04 μM, 0.01 μM test compound). The ratiometric data (i.e., emission 2 divided by emission 1) is used to calculate IC50 values against Ras using GraphPad Prism (GraphPad software). Following this general procedure, samples were tested with or without a subject compound disclosed herein including compounds exemplified in Table 1 to assess their abilities to inhibit a mutant K-Ras relative to another mutant K-Ras or wildtype K-Ras. Signaling output measured in terms of IC50 values can be obtained, a ratio of IC50 against one mutant relative to another mutant can be calculated. For instance, a selective reduction of K-Ras G12D signaling output can be evidenced by a ratio greater than one. In particular, a selective reduction of K-Ras G12D signaling relative to K-Ras WT signaling is evidenced as the ratio of IC50 (against K-Ras WT) to IC50 (against K-Ras G12D) is greater than 1.

KRASwt = target: T2, KRASwt (Homo sapiens, UniProt P01116); test: Bio-Biochem-PPI-HTRF Ras-SOS1 interaction assay (KRAS wt); type: biochemical; conditions: 5 nM
T2 construct: made in house; host or cells: E. coli BL21 (DE3)
T2 sequence (P01116 1-188 isoform P01116-2): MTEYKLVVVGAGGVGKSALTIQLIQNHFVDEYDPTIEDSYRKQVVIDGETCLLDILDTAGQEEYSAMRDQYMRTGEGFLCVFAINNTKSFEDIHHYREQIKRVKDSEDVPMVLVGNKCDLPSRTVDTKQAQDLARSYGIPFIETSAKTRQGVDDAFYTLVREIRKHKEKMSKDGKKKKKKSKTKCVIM
Experimental: as §1

T1 sequence (P01116 1-188 isoform P01116-2 G12D): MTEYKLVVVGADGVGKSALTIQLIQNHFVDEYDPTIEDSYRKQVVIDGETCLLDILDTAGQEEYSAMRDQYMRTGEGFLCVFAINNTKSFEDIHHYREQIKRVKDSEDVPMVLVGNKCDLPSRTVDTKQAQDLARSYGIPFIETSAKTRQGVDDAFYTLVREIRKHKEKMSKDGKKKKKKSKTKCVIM

Row | Structure (SMILES) | pIC50 (KRASG12D) | pIC50 (KRASwt)
1 | N#Cc1c(N)sc2c(F)ccc(-c3c(Cl)cc4c(N5CCCCC6(CN(C(=O)C7CC7(F)Cl)C6)C5)nc(OC[C@@]56CCCN5C[C@H](F)C6)nc4c3F)c12 (stereo partly drawn) [compound 336, 2-amino-4-(6-chloro-4-(2-(2-chloro-2-fluorocyclopropane-1-carbonyl)-2,6-diazaspiro[3.6]decan-6-yl)-8-fluoro-2-(((2R,7aS)-2-fluorotetrahydro-1H-pyrrolizin-7a(5H)-yl)methoxy)quinazolin-7-yl)-7-fluorobenzo[b]thiophene-3-carbonitrile] | > 5.30 | > 5.30
2 | N#Cc1c(N)sc2c(F)ccc(-c3c(Cl)cc4c(N5CCCCC6(CN(C(=O)[C@H]7C[C@@H]7F)C6)C5)nc(OC[C@@]56CCCN5C[C@H](F)C6)nc4c3F)c12 [compound 284, 2-amino-4-(6-chloro-8-fluoro-4-(2-((1R,2S)-2-fluorocyclopropane-1-carbonyl)-2,6-diazaspiro[3.6]decan-6-yl)-2-(((2R,7aS)-2-fluorotetrahydro-1H-pyrrolizin-7a(5H)-yl)methoxy)quinazolin-7-yl)-7-fluorobenzo[b]thiophene-3-carbonitrile] | > 5.30 | > 5.30
3 | N#Cc1c(N)sc2c(F)ccc(-c3c(Cl)cc4c(N5CC(F)(F)OC6(CN(C(=O)C7CC7(F)F)C6)C5)nc(OC[C@@]56CCCN5C[C@H](F)C6)nc4c3F)c12 (stereo partly drawn) [compound 167, 2-amino-4-(6-chloro-4-(2-(2,2-difluorocyclopropane-1-carbonyl)-6,6-difluoro-5-oxa-2,8-diazaspiro [3.5]nonan-8-yl)-8-fluoro-2-(((2R,7aS)-2-fluorotetrahydro-1H-pyrrolizin-7a(5H)-yl)methoxy)quinazolin-7-yl)-7-fluorobenzo[b] thiophene-3-carbonitrile] | > 5.30 | > 5.30
4 | C[C@@H](O)C(=O)N1CC2(CCCCN(c3nc(OC[C@@]45CCCN4C[C@H](F)C5)nc4c(F)c(-c5ccc(F)c6sc(N)c(C#N)c56)c(Cl)cc34)C2)C1 [compound 243, 2-amino-4-(6-chloro-8-fluoro-2-(((2R,7aS)-2-fluorotetrahydro-1H-pyrrolizin-7a(5H)-yl)methoxy)-4-(2-((R)-2-hydroxypropanoyl)-2,6-diazaspiro[3.6]decan-6-yl)quinazolin-7-yl)-7-fluorobenzo[b] thiophene-3-carbonitrile] | > 5.30 | > 5.30
5 | N#Cc1c(N)sc2c(F)ccc(-c3c(Cl)cc4c(N5CCC(O)CC6(CN(C(=O)[C@@H]7CC7(F)F)C6)C5)nc(OC[C@@]56CCCN5C[C@H](F)C6)nc4c3F)c12 (stereo partly drawn) [compound 249, 2-amino-4-(6-chloro-4-(2-((S)-2,2-difluorocyclopropane-1-carbonyl)-9-hydroxy-2,6-diazaspiro[3.6]decan-6-yl)-8-fluoro-2-(((2R,7aS)-2-fluorotetrahydro-1H-pyrrolizin-7a(5H)-yl)methoxy)quinazolin-7-yl)-7-fluorobenzo[b]thiophene-3-carbonitrile] | > 5.30 | > 5.30
6 | N#Cc1c(N)sc2c(F)ccc(-c3c(Cl)cc4c(N5CCCCC6(CN(C(=O)N7CC(F)(F)C7)C6)C5)nc(OC[C@@]56CCCN5C[C@H](F)C6)nc4c3F)c12 [compound 298, 2-amino-4-(6-chloro-4-(2-(3,3-difluoroazetidine-1-carbonyl)-2,6-diazaspiro[3.6]decan-6-yl)-8-fluoro-2-(((2R,7aS)-2-fluorotetrahydro-1H-pyrrolizin-7a(5H)-yl)methoxy)quinazolin-7-yl)-7-fluorobenzo[b]thiophene-3-carbonitrile] | > 5.30 | > 5.30
7 | N#Cc1c(N)sc2c(F)ccc(-c3c(Cl)cc4c(N5CCCCC6(CN(C(=O)C7CC8CCC7O8)C6)C5)nc(OC[C@@]56CCCN5C[C@H](F)C6)nc4c3F)c12 (stereo partly drawn) [compound 303, 4-(4-(2-(7-oxabicyclo[2.2.1]heptane-2-carbonyl)-2,6-diazaspiro[3.6]decan-6-yl)-6-chloro-8-fluoro-2-(((2R,7aS)-2-fluorotetrahydro-1H-pyrrolizin-7a(5H)-yl)methoxy)quinazolin-7-yl)-2-amino-7-fluorobenzo[b]thiophene-3-carbonitrile] | > 5.30 | > 5.30
8 | N#Cc1c(N)sc2c(F)ccc(-c3c(Cl)cc4c(N5CCC(OC(F)F)CC6(CN(C(=O)[C@@H]7CC7(F)F)C6)C5)nc(OC[C@@]56CCCN5C[C@H](F)C6)nc4c3F)c12 (stereo partly drawn) [compound 313, 2-amino-4-(6-chloro-4-(2-((S)-2,2-difluorocyclopropane-1-carbonyl)-9-(difluoromethoxy)-2,6-diazaspiro[3.6]decan-6-yl)-8-fluoro-2-(((2R,7aS)-2-fluorotetrahydro-1H-pyrrolizin-7a(5H)-yl)methoxy)quinazolin-7-yl)-7-fluorobenzo[b]thiophene-3-carbonitrile] | > 5.30 | > 5.30

Results, then the molecule that gave them:

Row | pIC50 (KRASG12D) | pIC50 (KRASwt) | Structure (SMILES)
9 | > 5.30 | > 5.30 | N#Cc1c(N)sc2c(F)ccc(-c3c(F)c4nc(OC[C@@]56CCCN5C[C@H](F)C6)nc(N5CCCCC6(CN(C(=O)C(F)F)C6)C5)c4c(=O)n3C3CC3)c12 [compound 233, 2-amino-4-(6-cyclopropyl-4-(2-(2,2-difluoroacetyl)-2,6-diazaspiro [3.6]decan-6-yl)-8-fluoro-2-(((2R,7aS)-2-fluorotetrahydro-1H-pyrrolizin-7a(5H)-yl)methoxy)-5-oxo-5,6-dihydropyrido[4,3-d]pyrimidin-7-yl)-7-fluorobenzo[b]thiophene-3-carbonitrile]
10 | > 5.30 | > 5.30 | C[C@H](Oc1nc(N2CCCC3(CN(C(=O)N4CC(F)(F)C4)C3)C2)c2cc(Cl)c(-c3ccc(F)c4sc(N)c(C#N)c34)c(F)c2n1)[C@@H]1CCCN1C [compound 212, 2-amino-4-(6-chloro-4-(2-(3,3-difluoroazetidine-1-carbonyl)-2,6-diazaspiro[3.5]nonan-6-yl)-8-fluoro-2-((S)-1-((S)-1-methylpyrrolidin-2-yl)ethoxy)quinazolin-7-yl)-7-fluorobenzo[b]thiophene-3-carbonitrile]
11 | ≤ 5.30 | ≤ 5.30 | C#Cc1c(F)ccc2cc(O)cc(-c3nc4c(cc3F)c(N3CCOC5(CNC5)C3)nc(=O)n4-c3c(C)ccnc3C(C)C)c12 [compound 170, 7-(8-ethynyl-7-fluoro-3-hydroxynaphthalen-1-yl)-6-fluoro-1-(2-isopropyl-4-methylpyridin-3-yl)-4-(5-oxa-2,8-diazaspiro[3.5]nonan-8-yl)pyrido[2,3-d]pyrimidin-2(1H)-one]
12 | > 5.30 | > 5.30 | N#Cc1c(N)sc2c(F)ccc(-c3c(Cl)cc4c(N5CCCCC6(CN(C(=O)C7(F)CC7)C6)C5)nc(OC[C@@]56CCCN5C[C@H](F)C6)nc4c3F)c12 [compound 253, 2-amino-4-(6-chloro-8-fluoro-4-(2-(1-fluorocyclopropane-1-carbonyl)-2,6-diazaspiro[3.6]decan-6-yl)-2-(((2R,7aS)-2-fluorotetrahydro-1H-pyrrolizin-7a(5H)-yl)methoxy)quinazolin-7-yl)-7-fluorobenzo[b]thiophene-3-carbonitrile]
13 | > 5.30 | > 5.30 | N#Cc1c(N)sc2c(F)ccc(-c3c(Cl)cc4c(N5CCCCC6(CN(C(=O)C78CC(F)(C7)C8)C6)C5)nc(OC[C@@]56CCCN5C[C@H](F)C6)nc4c3F)c12 [compound 199, 2-amino-4-(6-chloro-8-fluoro-4-(2-(3-fluorobicyclo[1.1.1]pentane-1-carbonyl)-2,6-diazaspiro[3.6]decan-6-yl)-2-(((2R,7aS)-2-fluorotetrahydro-1H-pyrrolizin-7a(5H)-yl)methoxy)quinazolin-7-yl)-7-fluorobenzo[b]thiophene-3-carbonitrile]
14 | > 5.30 | > 5.30 | N#CN1CC2(CCCN(c3nc(OC[C@@]45CCCN4C[C@H](F)C5)nc4c(F)c(-c5ccc(F)c6sc(N)nc56)c(Cl)cc34)C2)C1 [compound 177, 6-(7-(2-amino-7-fluorobenzo [d]thiazol-4-yl)-6-chloro-8-fluoro-2-(((2R,7aS)-2-fluorotetrahydro-1H-pyrrolizin-7a(5H)-yl)methoxy)quinazolin-4-yl)-2,6-diazaspiro[3.5]nonane-2-carbonitrile]
15 | > 5.30 | > 5.30 | COC1CN(C(=O)N2CC3(CCCCN(c4nc(OC[C@@]56CCCN5C[C@H](F)C6)nc5c(F)c(-c6ccc(F)c7sc(N)c(C#N)c67)c(Cl)cc45)C3)C2)C1 [compound 306, 2-amino-4-(6-chloro-8-fluoro-2-(((2R,7aS)-2-fluorotetrahydro-1H-pyrrolizin-7a(5H)-yl)methoxy)-4-(2-(3-methoxyazetidine-1-carbonyl)-2,6-diazaspiro[3.6]decan-6-yl)quinazolin-7-yl)-7-fluorobenzo[b]thiophene-3-carbonitrile]
